Results taken from paper PMC2919490 (Journal of agricultural and food chemistry, 2010).
Where two headings read alike, the source gives them in different places. Values belong to the molecule of their own block, whether it stands above or below them.

Tests used:
Caco-2 cell monolayer = type: in vitro ADME, human; conditions: for Pa-b as percent of control: pH 6.8, 37 °C
[1] = Stability of transport study solutions in HBSS at 37 °C; type: physicochemical; conditions: HBSS pH 6.8, 37 °C water bath, 0, 1, 2, 4 and 6 hour, UPLC-MS/MS
Caco-2 cells [2] = assay: Marker compounds hydrolysis and metabolism in Caco-2 transport study; type: in vitro ADME, human; conditions: Caco-2 transport studies; for glucuronidation and sulfation metabolites: UPLC-MS/MS, of marker compounds and their aglycone; for hydrolysis to aglycone: aglycone by UPLC-MS/MS
Caco-2 cells [3] = conditions: cited from earlier work
[4] = type: in vitro ADME, human; conditions: human, Caco-2, pH 6.8, efflux ratio (Pba/Pab), vectorial transport ratio
MRP2 = MRP2 (Homo sapiens, UniProt Q92887); assay: Caco-2 transport of isoquercitrin in the presence of MRP2 inhibitor MK 571; type: in vitro ADME
MRP2, sequence (Q92887 whole entry): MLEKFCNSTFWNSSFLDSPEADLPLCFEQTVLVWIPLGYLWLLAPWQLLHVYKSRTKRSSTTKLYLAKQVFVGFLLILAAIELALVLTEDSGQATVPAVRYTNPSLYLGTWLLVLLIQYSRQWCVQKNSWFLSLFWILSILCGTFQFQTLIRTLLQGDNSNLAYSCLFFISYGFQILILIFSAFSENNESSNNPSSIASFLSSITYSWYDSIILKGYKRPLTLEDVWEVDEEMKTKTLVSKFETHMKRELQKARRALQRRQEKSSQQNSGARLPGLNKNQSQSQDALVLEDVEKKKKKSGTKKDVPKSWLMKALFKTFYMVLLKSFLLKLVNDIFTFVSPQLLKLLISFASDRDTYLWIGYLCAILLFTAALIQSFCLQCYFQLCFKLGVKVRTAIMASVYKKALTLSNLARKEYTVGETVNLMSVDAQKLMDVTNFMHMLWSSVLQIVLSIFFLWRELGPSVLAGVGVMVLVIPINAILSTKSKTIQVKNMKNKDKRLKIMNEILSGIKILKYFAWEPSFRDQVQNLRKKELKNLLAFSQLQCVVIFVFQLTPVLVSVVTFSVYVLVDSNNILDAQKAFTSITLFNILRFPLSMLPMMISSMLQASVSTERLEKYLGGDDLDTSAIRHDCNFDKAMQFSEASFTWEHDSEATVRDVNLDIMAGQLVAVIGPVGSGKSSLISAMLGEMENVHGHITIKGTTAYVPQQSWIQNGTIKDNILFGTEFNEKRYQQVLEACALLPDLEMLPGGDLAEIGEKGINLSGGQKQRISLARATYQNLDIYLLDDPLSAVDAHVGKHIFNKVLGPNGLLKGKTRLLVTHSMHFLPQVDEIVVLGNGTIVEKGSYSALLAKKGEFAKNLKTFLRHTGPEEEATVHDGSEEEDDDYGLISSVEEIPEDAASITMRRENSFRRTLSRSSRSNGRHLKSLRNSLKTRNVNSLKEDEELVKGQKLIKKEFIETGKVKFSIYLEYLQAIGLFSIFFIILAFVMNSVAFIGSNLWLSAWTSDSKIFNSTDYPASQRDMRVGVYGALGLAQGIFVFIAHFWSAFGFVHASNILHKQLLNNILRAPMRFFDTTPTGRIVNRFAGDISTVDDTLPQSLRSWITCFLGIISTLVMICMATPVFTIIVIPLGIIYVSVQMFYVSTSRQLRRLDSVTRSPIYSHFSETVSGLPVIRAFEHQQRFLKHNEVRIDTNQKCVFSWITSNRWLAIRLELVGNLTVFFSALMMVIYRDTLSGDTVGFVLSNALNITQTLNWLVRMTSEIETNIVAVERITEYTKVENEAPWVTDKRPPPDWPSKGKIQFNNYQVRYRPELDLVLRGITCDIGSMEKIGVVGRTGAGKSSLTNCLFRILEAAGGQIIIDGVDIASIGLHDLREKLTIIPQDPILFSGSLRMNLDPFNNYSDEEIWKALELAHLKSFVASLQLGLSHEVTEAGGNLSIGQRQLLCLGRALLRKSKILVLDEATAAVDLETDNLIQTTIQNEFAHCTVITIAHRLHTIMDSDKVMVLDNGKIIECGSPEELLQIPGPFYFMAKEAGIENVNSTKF

SGLT1 = assay: Caco-2 transport of isoquercitrin in the presence of phloridzin; type: in vitro ADME, human; conditions: pure isoquercitrin 10 μM, 50 μM phloridzin
[5] = especially under light exposure; cited from earlier work
[6] = in product 1 matrix, control pure compound 10 μM
[7] = in product 2 matrix, control pure compound 10 μM
[8] = isoquercitrin in product 2, 50 μM MK 571
[9] = isoquercitrin in product 4, 50 μM MK 571
[10] = pure isoquercitrin 10 μM, 50 μM MK 571 at apical side

Pa-b compared with control (Caco-2 cell monolayer; [6]): not altered | Pa-b as percent of control (Caco-2 cell monolayer; [7]): 54% | Pa-b as percent of control (Caco-2 cell monolayer; in product 4 matrix, control pure compound 10 μM): 46% | stability in experimental solutions (relative peak area as a function of time) [1]: stable | glucuronidation and sulfation metabolites (Caco-2 cells [2]): not detected | hydrolysis to aglycone (Caco-2 cells [2]): not hydrolyzed
Structure (SMILES): O=c1c(O[C@@H]2O[C@H](CO)[C@H](O)[C@H](O)[C@H]2O)c(-c2ccc(O)c(O)c2)oc2cc(O)cc(O)c12 [hyperoside]

efflux ratio (Pba/Pab) (Caco-2 cell monolayer; Caco-2, pH 6.8): 3.5 | vectorial transport ratio (Caco-2 cell monolayer; human, Caco-2, 4 h, 50 µM, pH 6.8): 0.16
Structure (SMILES): C[C@H]1O[C@H](OC[C@H]2O[C@@H](Oc3c(-c4ccc(O)cc4)oc4cc(O)cc(O)c4c3=O)[C@H](O)[C@@H](O)[C@@H]2O)[C@@H](O)[C@@H](O)[C@@H]1O [kaempferol-3-rutinoside]

glucuronidation and sulfation metabolites (Caco-2 cells [2]): not detected | hydrolysis to aglycone (Caco-2 cells [2]): not hydrolyzed
Structure (SMILES): C[C@@H]1O[C@@H](OC[C@H]2O[C@@H](Oc3c(-c4ccc(O)c(O)c4)oc4cc(O)cc(O)c4c3=O)[C@H](O)[C@@H](O)[C@@H]2O)[C@H](O)[C@H](O)[C@H]1O [rutin]

Structure (SMILES): C[C@@H]1O[C@@H](O[C@H]2[C@H](Oc3cc(O)c4c(c3)O[C@H](c3ccc(O)cc3)CC4=O)O[C@H](CO)[C@@H](O)[C@@H]2O)[C@H](O)[C@H](O)[C@H]1O [naringin]
permeability (Caco-2 cells [3]; Caco-2): 0.08 ×10⁻⁶ cm/s | permeability (words) (Caco-2 cells [3]; Caco-2): not permeable

Structure (SMILES): COc1ccc([C@@H]2CC(=O)c3c(O)cc(O[C@@H]4O[C@H](CO[C@@H]5O[C@@H](C)[C@H](O)[C@@H](O)[C@H]5O)[C@@H](O)[C@H](O)[C@H]4O)cc3O2)cc1O [hesperidin]
permeability (words) (Caco-2 cells [3]; HPLC-UV, 120 min transport): not permeable

Structure (SMILES): O=c1c(O[C@@H]2O[C@H](CO)[C@@H](O)[C@H](O)[C@H]2O)c(-c2ccc(O)c(O)c2)oc2cc(O)cc(O)c12 [isoquercitrin]
efflux ratio at 4 h, 10 µM [4]: 7.13 | Pb-a as percent of control (Caco-2 cell monolayer; [6]): 78% | Pb-a as percent of control (Caco-2 cell monolayer; [7]): 42% | efflux ratio at 4 h (MRP2; human, Caco-2, with MK 571, 50 µM): 0.4 | Pa-b change with MK 571 (MRP2; [8]): didn't increase significantly | Pb-a reduction with MK 571 (MRP2; [8]): 1.8 times | Pa-b increase with MK 571 (MRP2; [9]): 2.9 times | Pb-a change with MK 571 (MRP2; [9]): didn't change | Pb-a versus Pa-b (MRP2; [9]): not statistically different | vectorial transport ratio (MRP2; pure isoquercitrin 10 μM, 50 μM MK 571): 1 | Pa-b increase compared with control (MRP2; [10]): 3.2 times | Pb-a decrease compared with control (MRP2; [10]): 5.2 times | Pa-b increase compared to the control (SGLT1): 2.9 times | difference between Pa-b and Pb-a (SGLT1): diminished | stability in experimental solutions (relative peak area as a function of time) [1]: stable | glucuronidation and sulfation metabolites (Caco-2 cells [2]): not detected | hydrolysis to aglycone (Caco-2 cells [2]): not hydrolyzed

Structure (SMILES): Cc1cc(O)c2c(=O)c3c(O)cc(O)c4c5c(O)cc(O)c6c(=O)c7c(O)cc(C)c8c1c2c(c34)c(c78)c65 [hypericin]
stability in aqueous solutions [5]: highly unstable
